This is an account of results in US11820766B2, “Monoacylglycerol lipase modulators” (Janssen Pharmaceutica NV, priority 2018, dated 2023).

What is called IC50 is the concentration that inhibits the measured activity by half.

For this test, the target named is T1, human MGL from HeLa cells (Homo sapiens, UniProt Q99685).
T1 construct: combining endogenously expressed MGL from HeLa cells with test compounds; endogenous in cells; host or cells: HeLa cells / cell homogenates
T1 sequence (Q99685 1-303): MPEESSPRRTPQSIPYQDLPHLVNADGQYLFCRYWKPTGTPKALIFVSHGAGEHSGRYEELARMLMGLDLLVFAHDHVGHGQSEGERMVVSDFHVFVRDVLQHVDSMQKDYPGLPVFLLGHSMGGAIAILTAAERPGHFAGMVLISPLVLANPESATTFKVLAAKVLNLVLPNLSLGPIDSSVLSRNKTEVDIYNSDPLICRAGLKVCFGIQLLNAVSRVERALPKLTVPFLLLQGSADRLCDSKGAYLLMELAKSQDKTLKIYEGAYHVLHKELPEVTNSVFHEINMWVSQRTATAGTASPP
Kind of test: In vitro MGL activity assay: [glycerol-1,3-3H]-oleyl glycerol cleavage by MGL from HeLa cells. Format: biochemical. To be noted: 300 nM [Glycerol-1,3-3H]-oleyl glycerol, one hour incubation. The text has this: MGL is the predominant hydrolase in HeLa cells/cell homogenates.
The molecule `C[C@H]1c2nn(C)c(-c3cc(F)c(F)c(F)c3)c2CCN1C(=O)c1cc(F)cc(-n2cncn2)c1` [Example 277, [(7S)-2,7-Dimethyl-3-(3,4,5-trifluorophenyl)-5,7-dihydro-4H-pyrazolo[3,4-c]pyridin-6-yl]-[3-fluoro-5-(1,2,4-triazol-1-yl)phenyl]methanone] gave an IC50 of 22 nM.
In the case of `COc1cc(C(=O)N2CCc3c(nn(C)c3-c3cc(F)c(F)c(F)c3)[C@@H]2C)cc(-n2cncn2)c1` [Example 278, [(7S)-2,7-Dimethyl-3-(3,4,5-trifluorophenyl)-5,7-dihydro-4H-pyrazolo[3,4-c]pyridin-6-yl]-[3-methoxy-5-(1,2,4-triazol-1-yl)phenyl]methanone] it was 3.24 nM; in that of `C[C@H]1c2nn(C)c(-c3cc(F)c(F)c(F)c3)c2CCN1C(=O)c1ccccc1-n1cncn1` [Example 279, [(7S)-2,7-Dimethyl-3-(3,4,5-trifluorophenyl)-5,7-dihydro-4H-pyrazolo[3,4-c]pyridin-6-yl]-[2-(1,2,4-triazol-1-yl)phenyl]methanone], 7.34 nM.
For `C[C@H]1c2nn(C)c(-c3cc(F)c(F)c(F)c3)c2CCN1C(=O)c1c(F)cccc1-n1cncn1` [Example 280, [(7S)-2,7-Dimethyl-3-(3,4,5-trifluorophenyl)-5,7-dihydro-4H-pyrazolo[3,4-c]pyridin-6-yl]-[2-fluoro-6-(1,2,4-triazol-1-yl)phenyl]methanone] the value was 7.77 nM.
In the case of `C[C@H]1c2nn(C)c(-c3cc(F)c(F)c(F)c3)c2CCN1C(=O)c1cc(F)ccc1-n1cncn1` [Example 281, [(7S)-2,7-Dimethyl-3-(3,4,5-trifluorophenyl)-5,7-dihydro-4H-pyrazolo[3,4-c]pyridin-6-yl]-[5-fluoro-2-(1,2,4-triazol-1-yl)phenyl]methanone] it was 9.01 nM; in that of `C[C@H]1c2nn(C)c(-c3cc(F)c(F)c(F)c3)c2CCN1C(=O)c1ccccc1-n1cnc(C(F)(F)F)n1` [Example 282, [(7S)-2,7-Dimethyl-3-(3,4,5-trifluorophenyl)-5,7-dihydro-4H-pyrazolo[3,4-c]pyridin-6-yl]-[2-[3-(trifluoromethyl)-1,2,4-triazol-1-yl]phenyl]methanone], 1870 nM.
As to `C[C@H]1c2nn(C)c(-c3cc(F)c(F)c(F)c3)c2CCN1C(=O)c1cccc(-n2nccn2)c1` [Example 283, [(7S)-2,7-Dimethyl-3-(3,4,5-trifluorophenyl)-5,7-dihydro-4H-pyrazolo[3,4-c]pyridin-6-yl]-[3-(triazol-2-yl)phenyl]methanone], inhibition was half-maximal at 19.1 nM (IC50).
For `C[C@H]1c2nn(C)c(-c3cc(F)c(F)c(F)c3)c2CCN1C(=O)c1cc(F)cc(-n2nccn2)c1` [Example 284, [(7S)-2,7-Dimethyl-3-(3,4,5-trifluorophenyl)-5,7-dihydro-4H-pyrazolo[3,4-c]pyridin-6-yl]-[3-fluoro-5-(triazol-2-yl)phenyl]methanone] the value was 15.6 nM; for `C[C@H]1c2nn(C)c(-c3cc(F)c(F)c(F)c3)c2CCN1C(=O)c1cc(-n2nccn2)ccc1F` [Example 285, [(7S)-2,7-Dimethyl-3-(3,4,5-trifluorophenyl)-5,7-dihydro-4H-pyrazolo[3,4-c]pyridin-6-yl]-[2-fluoro-5-(triazol-2-yl)phenyl]methanone], 18.6 nM.
For `Cc1cc(C(=O)N2CCc3c(nn(C)c3-c3cc(F)c(F)c(F)c3)[C@@H]2C)cc(-n2nccn2)c1` [Example 286, [(7S)-2,7-Dimethyl-3-(3,4,5-trifluorophenyl)-5,7-dihydro-4H-pyrazolo[3,4-c]pyridin-6-yl]-[3-methyl-5-(triazol-2-yl)phenyl]methanone] the value was 2.27 nM.
On to `C[C@H]1c2nn(C)c(-c3cc(F)c(F)c(F)c3)c2CCN1C(=O)c1cc(-n2nccn2)cc(C(F)(F)F)c1` [Example 287, [(7S)-2,7-Dimethyl-3-(3,4,5-trifluorophenyl)-5,7-dihydro-4H-pyrazolo[3,4-c]pyridin-6-yl]-[3-(triazol-2-yl)-5-(trifluoromethyl)phenyl]methanone], for which the midpoint of inhibition, the IC50, lay at 60.4 nM.
